The values that follow come from patent US6887661B1, “Recombinant bHLH-PAS/JHR polypeptide and its use to screen potential insecticides” (American Cyanamid Company, priority 1997, dated 2005).

Assay [1] deals with Met mutant Drosophila flies. The settings on record: cited from earlier work; for resistance to topical application: Met gene mutation.
The test system of assay [2] is JH cytosolic binding protein. The settings on record: cited from earlier work.
The test system of assay [3] is Drosophila. The settings on record: JH analog insecticide; cited from earlier work.
The subject of assay [4] is Met^3 flies transformed with genomic fragments. Nature of the assay: Methoprene resistance test of progeny of Met^3 transformants (rescue of Met phenotype). The format is in vivo, Drosophila. The settings on record: three diagnostic amounts of methoprene. How it is done: P-element mediated germline transformation was carried out with DNA fragments isolated from phage clones derived from a wild-type genomic library. Genomic fragments were isolated following restriction enzyme digestions of phage obtained from the iso-i strain genomic library. (Tamkun et al. Proc. Natl. Acad. Sci. USA 81:5140 (1984)). Fragments were either subcloned into Bluescript (Stratagene Co., Ca.), then excised with an EcoRI-NotI double digest and subcloned into the pCaSpeR 4 transformation vector (Thummel et al. Drosophila Inform. Serv. 71:150 (1992)), or were subcloned directly into the pCaSpeR 4 vector. Purified plasmids together with pp25.1wc transformation “helper” DNA in a ratio of 2-3:1 were injected into dechorionated ywMet^3 embryos as described. (A. Spradling in Drosophila—A Practical Approach (D. B. Roberts, Ed. IRL, Oxford, 1986, page 175). Go progeny were individually crossed with y w Met^3, and transformants recognized by restoration of eye color ranging from light orange to red. For each DNA fragment, 3-5 transformants from separate Go females were recovered and their progeny tested for methoprene resistance.
Progeny of transformants were tested on three diagnostic amounts of methoprene as described in Wilson, Arch. Insect Biochem. Physiol. 32:641 (1996)). […]

The subject of assay [5] is DNA BD of the glucocorticoid receptor fused to the AhR. The settings on record: CHO mammalian cells; cited from earlier work.
Assay [6] concerns GAL4-AhR construct. The settings on record: yeast cells; construct constitutively active without ligand; cited from earlier work.

Turning to `COC(=O)/C=C(\C)CC/C=C(\C)CC[C@H]1OC1(C)C` [JH III, [R-(E,E)]-9-(3,3-dimethyloxiranyl)-3,7-dimethyl-2,6-nonadienoic acid methyl ester], the “resistance to topical application” value in assay [1] is “resistance”. Also, the “binding to cytosolic juvenile hormone-binding protein” value in assay [2] (Drosophila melanogaster cytosolic protein) is given as “saturable, high-affinity binding”. Also, the “lower binding affinity of JH cytosolic binding protein from Met flies than from Met+ flies” value in assay [2] (Met flies versus Met+ flies) is listed as 10 fold.

`CC(COc1ccc(Oc2ccccc2)cc1)Oc1ccccn1` (stereo not shown) [pyriproxyfen]: the “resistance to topical application” value in assay [1] is reported as “resistance”.

As to `CCOC(=O)NCCOc1ccc(Oc2ccccc2)cc1` [fenoxycarb], the “resistance to topical application” value in assay [1] is on record as “resistance”.

Consider `COC(=O)/C=C(\C)CC[C@@H]1O[C@@]1(C)CC[C@H]1OC1(C)C` [JH bisepoxide], for which, in assay [1], the “resistance to topical application” value is on record as “resistance”.

Regarding `COC(C)(C)CCC[C@H](C)C/C=C/C(C)=C/C(=O)OC(C)C` [methoprene, [E,E]-1-methoxy-3,7,11-trimethyl-2,4-dodecadienoic acid 1-methylethyl ester], the “resistance to both the toxic and morphogenetic effects” value in assay [1] (Met mutant versus wild-type flies) is listed as no more than 100 fold. For the same molecule, the “resistance to both the toxic and morphogenetic effects conferred by Met^A3 and Met^K17 alleles” value in assay [1] (P-element alleles Met^A3 and Met^K17) is recorded as “conferred resistance”. Further, the “toxicity to Drosophila” value in assay [3] is listed as “high toxicity”. Moreover, in assay [4] (Met^3 transformants with fragments St-X and K-H), the “level of methoprene resistance compared with Met^3” value is given as “undiminished”. The “methoprene resistance after transformation” value in assay [4] (Met^3 transformed with the 6.234 Kb St-H fragment) is listed as “resistance was lost”.

With `Clc1cc2c(cc1Cl)Oc1cc(Cl)c(Cl)cc1O2` [dioxin], the “expression of reporter gene linked to a glucocorticoid response element” value in assay [5] was “induced expression of a reporter gene”. In assay [6], the “transactivation of LacZ reporter gene by GAL4-AhR construct” value was “enhanced transactivation”.
